# Legend:
# Assay type in all cases: functional, organism-based
# Plasmodium malariae = test: Antimalarial activity as inhibition of schizont maturation against Plasmodium malariae Thai after 40 - 70 hrs
# Plasmodium vivax = test: Antiplasmodial activity against Plasmodium vivax
# Plasmodium falciparum = test: Antiplasmodial activity against Plasmodium falciparum
IC50 (Plasmodium malariae),IC50 (Plasmodium vivax),IC50 (Plasmodium falciparum),Structure (SMILES)
0.0749 µg/mL,0.05 µg/mL,–,CCN(CC)CCCC(C)Nc1ccnc2cc(Cl)ccc12.Cl (stereo not given)
0.00224 µg/mL,0.008 µg/mL,4.08 µg/mL,CCc1nc(N)nc(N)c1-c1ccc(Cl)cc1 [PYRIMETHAMINE]

# From ChEMBL document CHEMBL1152822, “Genetic analysis of the dihydrofolate reductase-thymidylate synthase gene from geographically diverse isolates of Plasmodium malariae” (Antimicrob Agents Chemother, 2007)
